Data taken from US20040087633A1, “Methylidene oxazolidinone compound and preparation method thereof” (Korea Institute of Science and Technology, priority 2002, published 2004).
≈ marks a conversion by molar mass, not a printed value.

What was measured:
Experiment in all cases: Anti-microbial activity test in vitro (agar dilution MIC)
VRE C6488 = assay type: cell-based, Enterococcus faecium; settings: VRE C6488; Agar Dilution method, Mueller Hinton Agar, 18 hours at 37° C.
Summary of the method: (§1)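 Agar dilution on Mueller Hinton agar with twofold serial compound dilutions; strains grown 18 h at 37 °C. MIC (μg/ml) read visually.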

VRE C6487 = assay type: cell-based, Enterococcus faecium; settings: VRE C6487; Agar Dilution method, Mueller Hinton Agar, 18 hours at 37° C.
Summary of the method: as §1

E. faecalis ATCC29212 = assay type: cell-based; settings: E. faecalis ATCC29212; Agar Dilution method, Mueller Hinton Agar, 18 hours at 37° C.
Summary of the method: as §1

E. faecalis C6288 = assay type: cell-based; settings: E. faecalis C6288; Agar Dilution method, Mueller Hinton Agar, 18 hours at 37° C.
Summary of the method: as §1

S. aureus ATCC 29213 = assay type: cell-based; settings: Agar Dilution method, Mueller Hinton Agar, 18 hours at 37° C.
Summary of the method: as §1

S. pyogenes C6003 = assay type: cell-based; settings: S. pyogenes C6003; Agar Dilution method, Mueller Hinton Agar, 18 hours at 37° C.
Summary of the method: as §1

E. faecalis C6291 = assay type: cell-based; settings: E. faecalis C6291; Agar Dilution method, Mueller Hinton Agar, 18 hours at 37° C.
Summary of the method: as §1

E. faecium C2252 = assay type: cell-based; settings: E. faecium C2252; Agar Dilution method, Mueller Hinton Agar, 18 hours at 37° C.
Summary of the method: as §1

S. pyogenes ATCC8668 = assay type: cell-based; settings: S. pyogenes ATCC8668; Agar Dilution method, Mueller Hinton Agar, 18 hours at 37° C.
Summary of the method: as §1

S. epidermidis C2235 = assay type: cell-based; settings: S. epidermidis C2235; Agar Dilution method, Mueller Hinton Agar, 18 hours at 37° C.
Summary of the method: as §1

E. faecium C6301 = assay type: cell-based; settings: E. faecium C6301; Agar Dilution method, Mueller Hinton Agar, 18 hours at 37° C.
Summary of the method: as §1

S. pyogenes C6012 = assay type: cell-based; settings: S. pyogenes C6012; Agar Dilution method, Mueller Hinton Agar, 18 hours at 37° C.
Summary of the method: as §1

S. epidermidis C2230 = assay type: cell-based; settings: S. epidermidis C2230; Agar Dilution method, Mueller Hinton Agar, 18 hours at 37° C.
Summary of the method: as §1

S. epidermidis ATCC12228 = assay type: cell-based; settings: S. epidermidis ATCC12228; Agar Dilution method, Mueller Hinton Agar, 18 hours at 37° C.
Summary of the method: as §1

MRSA C2207 = assay type: cell-based, Staphylococcus aureus; settings: MRSA C2207; Agar Dilution method, Mueller Hinton Agar, 18 hours at 37° C.
Summary of the method: as §1

CRSA C1062 = assay type: cell-based, Staphylococcus aureus; settings: CRSA C1062; Agar Dilution method, Mueller Hinton Agar, 18 hours at 37° C.
Summary of the method: as §1

MRSA C5100 = assay type: cell-based, Staphylococcus aureus; settings: MRSA C5100; Agar Dilution method, Mueller Hinton Agar, 18 hours at 37° C.
Summary of the method: as §1

CRSA C6043 = assay type: cell-based, Staphylococcus aureus; settings: CRSA C6043; Agar Dilution method, Mueller Hinton Agar, 18 hours at 37° C.
Summary of the method: as §1

MSSA C7142 = assay type: cell-based, Staphylococcus aureus; settings: MSSA C7142; Agar Dilution method, Mueller Hinton Agar, 18 hours at 37° C.
Summary of the method: as §1

MSSA C2214 = assay type: cell-based, Staphylococcus aureus; settings: MSSA C2214; Agar Dilution method, Mueller Hinton Agar, 18 hours at 37° C.
Summary of the method: as §1

MRSA C6068 = assay type: cell-based, Staphylococcus aureus; settings: MRSA C6068; Agar Dilution method, Mueller Hinton Agar, 18 hours at 37° C.
Summary of the method: as §1

Compound | Minimum inhibition concentration (MIC) (VRE C6488) [µg/mL] | Minimum inhibition concentration (MIC) (VRE C6487) [µg/mL] | Minimum inhibition concentration (MIC) (E. faecalis ATCC29212) [µg/mL] | Minimum inhibition concentration (MIC) (E. faecalis C6288) [µg/mL] | Minimum inhibition concentration (MIC) (S. aureus ATCC 29213) [µg/mL] | Minimum inhibition concentration (MIC) (S. pyogenes C6003) [µg/mL] | Minimum inhibition concentration (MIC) (E. faecalis C6291) [µg/mL] | Minimum inhibition concentration (MIC) (E. faecium C2252) [µg/mL] | Minimum inhibition concentration (MIC) (S. pyogenes ATCC8668) [µg/mL] | Minimum inhibition concentration (MIC) (S. epidermidis C2235) [µg/mL] | Minimum inhibition concentration (MIC) (E. faecium C6301) [µg/mL] | Minimum inhibition concentration (MIC) (S. pyogenes C6012) [µg/mL] | Minimum inhibition concentration (MIC) (S. epidermidis C2230) [µg/mL] | Minimum inhibition concentration (MIC) (S. epidermidis ATCC12228) [µg/mL] | Minimum inhibition concentration (MIC) (MRSA C2207) [µg/mL] | Minimum inhibition concentration (MIC) (CRSA C1062) [µg/mL] | Minimum inhibition concentration (MIC) (MRSA C5100) [µg/mL] | Minimum inhibition concentration (MIC) (CRSA C6043) [µg/mL] | Minimum inhibition concentration (MIC) (MSSA C7142) [µg/mL] | Minimum inhibition concentration (MIC) (MSSA C2214) [µg/mL] | also measured
CC(=O)NC[C@H]1CN(c2ccc(N3CCC(=Cc4cc(-c5cccs5)no4)CC3)c(F)c2)C(=O)O1 [Compound 9, N-[[(5S)-3-[3-fluoro-4-((4-(3-thiophen-2-yl-5-isoxazolyl)-methylidene)piperidinyl)phenyl]-2-oxo-5-oxazolidinyl]methyl]acetamide] | 16 (≈ 32.2 µM) | 16 (≈ 32.2 µM) | 16 (≈ 32.2 µM) | 16 (≈ 32.2 µM) | 32 (≈ 64.4 µM) | 16 (≈ 32.2 µM) | 16 (≈ 32.2 µM) | 16 (≈ 32.2 µM) | 2 (≈ 4.03 µM) | 8 (≈ 16.1 µM) | 16 (≈ 32.2 µM) | 4 (≈ 8.06 µM) | 8 (≈ 16.1 µM) | 4 (≈ 8.06 µM) | 32 (≈ 64.4 µM) | 32 (≈ 64.4 µM) | 16 (≈ 32.2 µM) | 16 (≈ 32.2 µM) | 32 (≈ 64.4 µM) | 16 (≈ 32.2 µM) | Minimum inhibition concentration (MIC) (MRSA C6068): 16 µg/mL (≈ 32.2 µM)
CC(=O)NC[C@H]1CN(c2ccc(N3CCC(=CC(C)OC(C)=O)CC3)c(F)c2)C(=O)O1 (stereo partly drawn) [Compound 23, N-[[(5S)-3-[3-fluoro-4-(4-(2-acetoxypropylidene)-piperidinyl)phenyl]-2-oxo-5-oxazolidinyl]methyl]acetamide] | 4 (≈ 9.23 µM) | 4 (≈ 9.23 µM) | 8 (≈ 18.5 µM) | 8 (≈ 18.5 µM) | 16 (≈ 36.9 µM) | 8 (≈ 18.5 µM) | 8 (≈ 18.5 µM) | 8 (≈ 18.5 µM) | 0.5 (≈ 1.15 µM) | 8 (≈ 18.5 µM) | 8 (≈ 18.5 µM) | 2 (≈ 4.61 µM) | 8 (≈ 18.5 µM) | 2 (≈ 4.61 µM) | 8 (≈ 18.5 µM) | 16 (≈ 36.9 µM) | 16 (≈ 36.9 µM) | 16 (≈ 36.9 µM) | 16 (≈ 36.9 µM) | 16 (≈ 36.9 µM) | Minimum inhibition concentration (MIC) (MRSA C6068): 8 µg/mL (≈ 18.5 µM)
CON=CC=C1CCN(c2ccc(N3C[C@H](CNC(C)=O)OC3=O)cc2F)CC1 [Compound 19, N-[[(5S)-3-[3-fluoro-4-(4-(2-methoxyiminoethylidene)-piperidinyl)phenyl]-2-oxo-5-oxazolidinyl]methyl]acetamide] | 4 (≈ 9.89 µM) | 4 (≈ 9.89 µM) | 4 (≈ 9.89 µM) | 2 (≈ 4.95 µM) | 8 (≈ 19.8 µM) | 2 (≈ 4.95 µM) | 4 (≈ 9.89 µM) | 4 (≈ 9.89 µM) | 1 (≈ 2.47 µM) | 2 (≈ 4.95 µM) | 4 (≈ 9.89 µM) | 1 (≈ 2.47 µM) | 4 (≈ 9.89 µM) | 1 (≈ 2.47 µM) | 4 (≈ 9.89 µM) | 4 (≈ 9.89 µM) | 4 (≈ 9.89 µM) | 4 (≈ 9.89 µM) | 4 (≈ 9.89 µM) | 8 (≈ 19.8 µM) | Minimum inhibition concentration (MIC) (MRSA C6068): 4 µg/mL (≈ 9.89 µM)
CC(=O)NC[C@H]1CN(c2ccc(N3CCC(=CC(C)=NO)CC3)c(F)c2)C(=O)O1 [Compound 20, N-[[(5S)-3-[3-fluoro-4-(4-(2-hydroxyiminopropylidene)-piperidinyl)phenyl]-2-oxo-5-oxazolidinyl]methyl]acetamide] | 4 (≈ 9.89 µM) | 4 (≈ 9.89 µM) | 8 (≈ 19.8 µM) | 4 (≈ 9.89 µM) | 8 (≈ 19.8 µM) | 4 (≈ 9.89 µM) | 4 (≈ 9.89 µM) | 4 (≈ 9.89 µM) | 1 (≈ 2.47 µM) | 4 (≈ 9.89 µM) | 4 (≈ 9.89 µM) | 1 (≈ 2.47 µM) | 4 (≈ 9.89 µM) | 1 (≈ 2.47 µM) | 8 (≈ 19.8 µM) | 8 (≈ 19.8 µM) | 8 (≈ 19.8 µM) | 8 (≈ 19.8 µM) | 16 (≈ 39.6 µM) | 8 (≈ 19.8 µM) | Minimum inhibition concentration (MIC) (MRSA C6068): 4 µg/mL (≈ 9.89 µM)
